The compounds below were run on T1R1/T1R3 umami receptor (assay: In vitro screening of amino acids for ability to activate the T1R1/T1R3 receptor in the presence of 0.2 mM IMP). Conditions: FIG. 10.
Assay type: cell-based
`CC[C@H](C)[C@H](N)C(=O)O` [isoleucine] was tested, and the “activation of the T1R1/T1R3 umami receptor” value (from here on “activation”) was “do not activate”.
With `O=C(O)[C@@H]1C[C@@H](O)CN1` [hydroxyproline] the “activation” value was “do not activate”.
`N[C@@H](CSSC[C@H](N)C(=O)O)C(=O)O` [cystine] was tested, and the “activation” value was “do not activate”.
In the case of `NC(=O)CC[C@H](N)C(=O)O` [glutamine], the “activation” value was “do not activate”.
In the case of `N[C@@H](CCC(=O)O)C(=O)O` [glutamic acid], the “activation” value was “do not activate”.
For `NCCC[C@H](N)C(=O)O` [ornithine], the “activation” value was “do not activate”.
In the case of `N[C@@H](CC(=O)O)C(=O)O` [aspartic acid], the “activation” value was “do not activate”.
With `C[C@@H](O)[C@H](N)C(=O)O` [threonine] the “activation” value was “do not activate”.
For `CC(C)[C@H](N)C(=O)O` [valine], the “activation” value was “do not activate”.
In the case of `NCCCC[C@H](N)C(=O)O` [lysine], the “activation” value was “do not activate”.
For `NCCS(=O)(=O)O` [taurine], the “activation” value was “do not activate”.
`N=C(N)NCCC[C@H](N)C(=O)O` [arginine] was tested, and the “activation” value was “do not activate”.
For `O=C(O)[C@@H]1CCCN1` [proline], the “activation” value was “do not activate”.
